Measurements published in US20240116985A1, “STAPLED PEPTIDES AND METHODS THEREOF” (priority 2020, published 2024).

Molecular target: T1, full-length beta-Catenin (Uniprot ID P35222) (Homo sapiens, UniProt P35222)
T1 construct: 10 nM full-length beta-Catenin (Uniprot ID P35222)
T1 sequence (P35222 1-781): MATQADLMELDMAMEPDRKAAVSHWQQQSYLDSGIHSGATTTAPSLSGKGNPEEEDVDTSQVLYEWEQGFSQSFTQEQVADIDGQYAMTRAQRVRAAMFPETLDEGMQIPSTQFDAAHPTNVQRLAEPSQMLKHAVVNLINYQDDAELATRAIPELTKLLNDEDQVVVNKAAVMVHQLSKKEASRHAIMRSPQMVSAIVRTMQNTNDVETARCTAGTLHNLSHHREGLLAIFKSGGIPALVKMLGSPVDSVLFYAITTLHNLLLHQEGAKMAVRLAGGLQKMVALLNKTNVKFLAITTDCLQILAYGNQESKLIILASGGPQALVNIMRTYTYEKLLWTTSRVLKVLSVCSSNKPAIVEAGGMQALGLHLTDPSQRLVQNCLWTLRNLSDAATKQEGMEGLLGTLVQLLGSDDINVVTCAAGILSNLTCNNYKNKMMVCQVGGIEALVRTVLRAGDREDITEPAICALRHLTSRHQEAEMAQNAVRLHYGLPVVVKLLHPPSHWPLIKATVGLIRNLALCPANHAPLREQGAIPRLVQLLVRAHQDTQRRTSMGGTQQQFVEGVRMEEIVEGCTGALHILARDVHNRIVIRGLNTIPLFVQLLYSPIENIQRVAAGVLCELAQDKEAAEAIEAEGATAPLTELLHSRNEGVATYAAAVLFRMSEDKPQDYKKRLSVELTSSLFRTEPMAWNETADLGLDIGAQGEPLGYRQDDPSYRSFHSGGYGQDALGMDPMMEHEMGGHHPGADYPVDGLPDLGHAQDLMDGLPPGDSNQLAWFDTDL
Assay: Fluorescence polarization IC50 (beta-catenin / 5FAM-TCF4 10-53 competition)
Assay type: binding
Details: beta-Catenin FP IC50 (nM), fluorescence polarization

| Compound | IC50 [nM] |
| --- | --- |
| CC(C)C[C@@H]1NC(=O)[C@H](Cc2ccccc2)NC(=O)[C@H](C)NC(=O)[C@H](C)NC(=O)[C@H](Cc2cccc(C(=O)O)c2)NC(=O)[C@H](CC(=O)O)NC(=O)C2(CCCC=CCCCOC(=O)N3CC[C@@](C(=O)N[C@@H](Cc4ccccc4Cl)C(=O)N[C@@H](Cc4csc5ccccc45)C(=O)N[C@@H](C)C(N)=O)(C3)NC1=O)CCCC=CC[C@]1(CCCN1C(=O)Oc1ccccc1)C(=O)N[C@@H](CC(=O)O)C(=O)N[C@@H](CC(C)(C)C)C(=O)N2 (stereo partly drawn) [I-2327, CO2Ph-PL3-Asp-Npg-B5-Asp-3COOHF-Ala-Ala-Phe-Leu-PyrS2-2C1F-BztA-Ala-NH2] | 376 |

Same assay, conditions: fluorescence polarization; read-out: beta-Catenin FP IC50

| Compound | IC50 [nM] |
| --- | --- |
| CC(C)C[C@H](NC(=O)[C@]12CCN(C1)C(=O)OCCCCCCCCC1(CCCCCCC(=O)N3CCC[C@@]3(C)C(=O)N[C@@H](CC(=O)O)C(=O)N1)C(=O)N[C@@H](C)C(=O)N[C@@H](CC(=O)O)C(=O)N[C@@H](CC(=O)O)C(=O)N[C@@H](C)C(=O)N[C@@H](C)C(=O)N[C@@H](Cc1ccccc1)C(=O)N2)C(=O)N[C@@H](Cc1ccsc1)C(=O)N[C@@H](Cc1csc2ccccc12)C(=O)N[C@@H](CCC(N)=O)C(N)=O (stereo partly drawn) [I-2608, 3butenyl-MePro-Asp-B5-Ala-Asp-Asp-Ala-Ala-Phe-PyrS2-Leu-3Thi-BztA-Gln-NH2] | 251 |
| CC(=O)N1CCC[C@]12CC=CCCCC1(CCCC=CCCCCOC(=O)N3CC(C(=O)N[C@@H](Cc4ccccc4C(F)(F)F)C(=O)N[C@@H](Cc4csc5ccccc45)C(=O)N[C@@H](CCC(N)=O)C(N)=O)(C3)NC(=O)[C@H](CC(C)C)NC(=O)[C@H](Cc3ccccc3)NC(=O)[C@H](C)NC(=O)C(C)(C)NC(=O)[C@H](Cc3cccc(C(=O)O)c3)NC(=O)[C@H](CC(=O)O)NC1=O)NC(=O)[C@H](CC(C)(C)C)NC(=O)[C@H](CC(=O)O)NC2=O (stereo partly drawn) [I-2615, Ac-PL3-Asp-Npg-B5-Asp-3COOHF-Aib-Ala-Phe-Leu-Az3-2F3MeF-BztA-Gln-NH2] | 115 |
| CC(=O)N1CCC[C@]12CC=CCCCC1(CCCC=CCCCOC(=O)N3CC[C@@](C(=O)N[C@@H](Cc4ccccc4)C(=O)N[C@@H](Cc4csc5ccccc45)C(=O)N[C@@H](CCC(N)=O)C(N)=O)(C3)NC(=O)[C@H](CC(C)C)NC(=O)[C@H](Cc3ccccc3)NC(=O)[C@H](C)NC(=O)[C@H](CCCCNC(C)C)NC(=O)[C@H](Cc3c[nH]cn3)NC(=O)[C@H](CC(=O)O)NC1=O)NC(=O)[C@H](CC1CCCCC1)NC(=O)[C@H](CC(N)=O)NC2=O (stereo partly drawn) [I-2349, Ac-PL3-Asn-Cha-B5-Asp-His-iPrLys-Ala-Phe-Leu-PyrS2-Phe-BztA-Gln-NH2] | 1160 |
| CC(=O)N1CCC[C@]12CCCCCCC1(CCCCCCCCOC(=O)N3CC[C@@](C(=O)N[C@@H](Cc4ccsc4)C(=O)N[C@@H](Cc4csc5ccccc45)C(=O)N[C@@H](Cc4ccccc4)C(N)=O)(C3)NC(=O)[C@H](CC(C)C)NC(=O)[C@H](Cc3ccccc3)NC(=O)[C@H](C)NC(=O)[C@H](C)NC(=O)[C@H](CN(CC(=O)O)CC(F)(F)F)NC(=O)[C@H](CC(=O)O)NC1=O)NC(=O)[C@H](CC(C)(C)C)NC(=O)[C@H](CC(=O)O)NC2=O (stereo partly drawn) [I-1755, Ac-PL3-Asp-Npg-B5-Asp-TfeGA-Ala-Ala-Phe-Leu-PyrS2-3Thi-BztA-Phe-NH2] | 570 |

Other lines, results leading:

| IC50 [nM] | Compound |
| --- | --- |
| 121 | CCCc1cn(CCCC[C@@H](NC(=O)[C@H](CO)NC(=O)[C@H](Cc2csc3ccccc23)NC(=O)[C@H](Cc2ccccc2C(F)(F)F)NC(=O)[C@]23CCN(C2)C(=O)OCCCC=CCCCC2(CCCC=CC[C@]4(CCCN4C(C)=O)C(=O)N[C@@H](CC(=O)O)C(=O)N[C@@H](CC(C)(C)C)C(=O)N2)C(=O)N[C@@H](CC(=O)O)C(=O)N[C@@H](Cc2cccc(C(=O)O)c2)C(=O)N[C@@H](C)C(=O)N[C@@H](C)C(=O)N[C@@H](Cc2ccccc2)C(=O)N[C@@H](CC(C)C)C(=O)N3)C(N)=O)nn1 (stereo partly drawn) [I-2444, Ac-PL3-Asp-Npg-B5-Asp-3COOHF-Ala-Ala-Phe-Leu-PyrS2-2F3MeF-BztA-Ser-[3C]TriAzdLys-NH2] |
| 168 | CC(=O)N1CCC[C@]12CC=CCCCCC1(CCCCC=CCOC(=O)N3CC[C@@](C(=O)N[C@@H](Cc4ccccc4C(F)(F)F)C(=O)N[C@@H](Cc4csc5ccccc45)C(=O)N[C@@H](C)C(N)=O)(C3)NC(=O)[C@H](CC(C)C)NC(=O)[C@H](Cc3ccccc3)NC(=O)[C@H](C)NC(=O)[C@H](CCC(N)=O)NC(=O)[C@H](Cc3cccc(C(=O)O)c3)NC(=O)[C@H](CC(=O)O)NC1=O)NC(=O)[C@H](CC(C)(C)C)NC(=O)[C@H](CC(=O)O)NC2=O (stereo partly drawn) [I-2507, Ac-PL3-Asp-Npg-B6-Asp-3COOHF-Gln-Ala-Phe-Leu-PyrS-2F3MeF-BztA-Ala-NH2] |
| 273 | CC(=O)N1CCC[C@]12CC=CCCCC1(CCCC=CCCCCOC(=O)N3CCC(C(=O)N[C@@H](Cc4ccccc4C(F)(F)F)C(=O)N[C@@H](Cc4csc5ccccc45)C(=O)N[C@@H](C)C(N)=O)(CC3)NC(=O)[C@H](CC(C)C)NC(=O)[C@H](Cc3ccccc3)NC(=O)[C@H](C)NC(=O)[C@H](CCC(N)=O)NC(=O)[C@H](Cc3cccc(C(=O)O)c3)NC(=O)[C@H](CC(=O)O)NC1=O)NC(=O)[C@H](CC(C)(C)C)NC(=O)[C@H](CC(=O)O)NC2=O (stereo partly drawn) [I-2587, Ac-PL3-Asp-Npg-B5-Asp-3COOHF-Gln-Ala-Phe-Leu-SPip3-2F3MeF-BztA-Ala-NH2] |
| 27 | CC(=O)N1CCC[C@]12CC=CCCCC1(CCCC=CCCCOC(=O)N3CC[C@@](C(=O)N[C@@H](Cc4ccsc4)C(=O)N[C@@H](Cc4csc5ccccc45)C(=O)N[C@@H](CCO)C(N)=O)(C3)NC(=O)[C@H](CC(C)C)NC(=O)[C@H](Cc3ccccc3)NC(=O)[C@H](C)NC(=O)[C@H](C)NC(=O)[C@H](CC(=O)O)NC(=O)[C@H](CC(=O)O)NC1=O)NC(=O)[C@H](CO)NC(=O)[C@H](CC(=O)O)NC2=O (stereo partly drawn) [I-1514, Ac-PL3-Asp-Ser-B5-Asp-Asp-Ala-Ala-Phe-Leu-PyrS2-3Thi-BztA-Hse-NH2] |
| 327 | CC(=O)N1CCC[C@]12CCCCCCC1(CCCCCCCCOC(=O)N3CC[C@@](C(=O)N[C@@H](Cc4ccsc4)C(=O)N[C@@H](Cc4csc5ccccc45)C(=O)N[C@@H](Cc4ccccc4)C(N)=O)(C3)NC(=O)[C@H](CC(C)C)NC(=O)[C@H](Cc3ccccc3)NC(=O)[C@H](C)NC(=O)[C@H](CCCCNC(C)C)NC(=O)[C@H](CN(CC(=O)O)CC(F)(F)F)NC(=O)[C@H](CC(=O)O)NC1=O)NC(=O)[C@H](CC(C)(C)C)NC(=O)[C@H](CC(=O)O)NC2=O (stereo partly drawn) [I-1767, Ac-PL3-Asp-Npg-B5-Asp-TfeGA-iPrLys-Ala-Phe-Leu-PyrS2-3Thi-BztA-Phe-NH2] |
| 5250 | CC(=O)N1CCC[C@]12CC=CCCCC1(CCCC=CCOC(=O)N(C)CC[C@@](C)(C(=O)N[C@@H](Cc3ccsc3)C(=O)N[C@@H](Cc3csc4ccccc34)C(=O)N[C@@H](CCC(N)=O)C(N)=O)NC(=O)[C@H](CC(N)=O)NC(=O)[C@H](Cc3ccccc3)NC(=O)[C@H](C)NC(=O)[C@H](C)NC(=O)[C@H]([C@@H](C)O)NC(=O)[C@H](CC(N)=O)NC1=O)NC(=O)[C@H](CC(C)(C)C)NC(=O)[C@H](CC(=O)O)NC2=O (stereo partly drawn) [I-2213, Ac-PL3-Asp-Npg-B5-Asn-Thr-Ala-Ala-Phe-Asn-SdN-3Thi-BztA-Gln-NH2] |
| 449 | CC(=O)N1CCC[C@]12CCCCCCC1(CCCCCCCCOC(=O)N3CC[C@@](C(=O)N[C@@H](Cc4ccsc4)C(=O)N[C@@H](Cc4csc5ccccc45)C(=O)N[C@H](C(N)=O)C(C)C)(C3)NC(=O)[C@H](CC(C)C)NC(=O)[C@H](Cc3ccccc3)NC(=O)[C@H](C)NC(=O)[C@H](C)NC(=O)[C@H](CN(CC(=O)O)CC(F)(F)F)NC(=O)[C@H](CC(=O)O)NC1=O)NC(=O)[C@H](CC(C)(C)C)NC(=O)[C@H](CC(=O)O)NC2=O (stereo partly drawn) [I-1757, Ac-PL3-Asp-Npg-B5-Asp-TfeGA-Ala-Ala-Phe-Leu-PyrS2-3Thi-BztA-Val-NH2] |
